These results are taken from patent publication US9913849B2, “Treatment of migraines” (Manistee Partners LLC, priority 2014, dated 2018).

For data set [1] the following is noted: cited from earlier work.
In data set [2] the test system is subject with a history of migraine headaches. Put plainly: Migraine case reports, topical administration to the eye(s). It is filed as in vivo, human. As to conditions: Example 1: person, 0.0004% single drop in both eyes once per day in the evening, 30 days. The method, then:
A subject was treated with ocular administration of travoprost 0.0004% once per day as a single drop in both eyes in the evening. The subject reported that they had no migraines after being on therapy for 30 days.
A person with a fifteen year history of severe migraine headaches refractory to multiple therapies, started treatment with TRAVATAN Z® (travoprost ophthalmic solution) administered topically to one eye daily.
A person with a history of migraine headaches (one per week) was started on daily topical administration of the prostaglandin, XALATAN® (latanoprost ophthalmic solution), to both eyes daily.

The conditions of data set [3]: one drop 0.0015% solution once daily into each eye, cited from earlier work.
For data set [4] the following is noted: cited from earlier work. The source holds these as a separate data set.
For data set [5] the following is noted: cited from earlier work. This is another data set of the same source.
The mark [6] stands for this setting: blood, days 7 and 14, 0.03% once daily to both eyes.

Like-named read-outs stand apart in the source and are kept apart here.

`O=C(O)CCC/C=C\C[C@@H]1[C@@H](/C=C/[C@@H](O)COc2cccc(C(F)(F)F)c2)[C@H](O)C[C@@H]1O` [travoprost free acid]: in data set [1] (individuals with quantifiable plasma concentrations (N=38)), the “mean plasma Cmax” value is 0.018 ± 0.007 ng/mL. Further, the “plasma concentrations of the free acid (below quantitation limit of the assay)” value in data set [1] (single drop daily in both eyes, in two-thirds of the subjects) is recorded as “below 0.01 ng/ml”.
Turning to `CC(C)OC(=O)CCC/C=C\C[C@@H]1[C@@H](/C=C/[C@@H](O)COc2cccc(C(F)(F)F)c2)[C@H](O)C[C@@H]1O` (relative stereo) [travoprost, [1R-[1α(Z),2β(1E,3R*),3α, 5α]]-7-[3,5-Dihydroxy-2-[3-hydroxy-4-[3-(trifluoromethyl)phenoxy]-1-butenyl]cyclopentyl]-5-heptenoic acid, 1-methylethylester], the “migraines reported on therapy” value in data set [2] is “no migraines”.
As to `O=C(O)CCC/C=C\C[C@@H]1[C@@H](/C=C/C(F)(F)COc2ccccc2)[C@H](O)C[C@@H]1O` [tafluprost acid], the figures for the “mean plasma AUC estimate of tafluprost acid” value in data set [3] (Day 1) and in data set [3] (Day 8) were 394 pg·min/mL and 432 pg·min/mL, respectively. The “mean plasma Cmax of tafluprost acid” value in data set [3] (Day 1) was 0.026 ng/mL; in data set [3] (Day 8) it was 0.027 ng/mL. Further, the “median time at which plasma concentrations of tafluprost acid peaked” value in data set [3] (healthy volunteers, both Days 1 and 8) was 10 min.
For `O=C(O)CCC/C=C\C[C@@H]1[C@@H](CC[C@@H](O)CCc2ccccc2)[C@H](O)C[C@@H]1O` [acid of latanoprost], in data set [4] (after local administration), the “time during which the acid can be measured in aqueous humor” value was not above 4 h and the “time during which the acid can be measured in plasma” value is “only during the first hour”.
On to `CCNC(=O)CCC/C=C\C[C@@H]1[C@@H](/C=C/[C@@H](O)CCc2ccccc2)[C@H](O)C[C@@H]1O` [Bimatoprost, (Z)-7-[(1R,2R,3R,5S)-3,5Dihydroxy-2-[(1E,3S)-3-hydroxy-5-phenyl-1-pentenyl]cyclopentyl]-5-N-ethylheptenamide], for which, in data set [5] (setting [6]), the “mean AUCO-24 hr” value is approximately 0.09 ng·h/mL and the “mean Cmax” value is reported as “approximately 0.08 ng/mL”. Also, the “distribution in human blood” value in data set [5] (human blood) is reported as “resides mainly in the plasma”. The “steady-state volume of distribution” value in data set [5] (human, in vivo) is recorded as 0.67 L/kg. Besides, in data set [5] (in most subjects within 1.5 hours after dosing, 0.03% once daily to both eyes), the “blood concentration (below lower limit of detection)” value is given as less than 0.025 ng/mL. Moreover, the “time at which blood concentrations peaked after dosing” value in data set [5] (one drop 0.03% once daily to both eyes, 15 healthy subjects, two weeks) was not above 10 min.
For `CC(C)OC(=O)CCC/C=C\C[C@@H]1[C@@H](CC[C@@H](O)CCc2ccccc2)[C@H](O)C[C@@H]1O` [Latanoprost, isopropyl-(Z)7[(1R,2R,3R,5S)3,5-dihydroxy-2-[(3R)-3-hydroxy-5-phenylpentyl]cyclopentyl]-5-heptenoate, reference compound], the distribution volume in data set [4] (in humans) is 0.16 ± 0.02 L/kg.
